Publication PMC5311937, “In Vitro Characterization and Concerted Function of Three Core Enzymes of a Glycyl Radical Enzyme - Associated Bacterial Microcompartment” (Scientific Reports, 2017)
Values belong to the compound of their own block, whether it stands above or below them.

How the values were obtained:
[1] = biological target: T1, AldDH (acylating aldehyde dehydrogenase, PduP) (Rhodopseudomonas palustris, UniProt Q21A49); test: X-ray crystal structure, […] Å; assay type: binding; details: active site; propionyl-CoA or CoA fitted; pH 4.8; also in one site of 5JFN, where Cys330 is S-propionylated (covalent)
T1 construct: gene RPC_1174; N-terminal encapsulation peptide kept
T1 sequence (Q21A49 entry or part of it): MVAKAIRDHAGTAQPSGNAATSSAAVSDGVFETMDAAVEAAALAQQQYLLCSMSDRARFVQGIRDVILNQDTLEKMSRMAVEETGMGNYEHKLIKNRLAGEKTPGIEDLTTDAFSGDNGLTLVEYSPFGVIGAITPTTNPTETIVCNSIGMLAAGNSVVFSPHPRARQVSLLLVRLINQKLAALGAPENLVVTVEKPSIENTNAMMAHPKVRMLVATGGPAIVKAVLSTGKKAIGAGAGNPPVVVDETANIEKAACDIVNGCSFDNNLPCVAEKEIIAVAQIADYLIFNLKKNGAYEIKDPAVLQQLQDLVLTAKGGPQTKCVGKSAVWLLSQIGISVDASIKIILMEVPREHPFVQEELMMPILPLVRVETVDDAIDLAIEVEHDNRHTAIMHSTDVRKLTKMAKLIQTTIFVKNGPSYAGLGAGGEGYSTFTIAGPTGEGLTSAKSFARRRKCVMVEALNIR

[2] = biological target: T1, AldDH (acylating aldehyde dehydrogenase, PduP); test: X-ray crystal structure, […] Å; assay type: binding; details: active site; pH 4.8, 5 mM NAD+
[3] = biological target: T1, AldDH (acylating aldehyde dehydrogenase, PduP); test: X-ray crystal structure, […] Å; assay type: binding; details: active site, acylated enzyme (Cys330 S-propionylated from propionyl-CoA); crystals at pH 8.1
[4] = biological target: T1, AldDH (acylating aldehyde dehydrogenase, PduP); test: NAD+ reduction monitored at […] nm; assay type: biochemical; details: 5 mM NAD+, 0.5 mM CoA, 200 mM MOPS/KOH pH 7.5; kcat per tetrameric enzyme; read-out: apparent KM
[5] = biological target: acylating aldehyde dehydrogenase (AldDH) from Rhodopseudomonas palustris BisB18, Strep-tagged (Rhodopseudomonas palustris BisB18); test: crystal structure; AldDH co-crystallised with NAD+ at pH 4.8, space group P2_(1), 2.3 Å, twinned
[6] = biological target: acylating aldehyde dehydrogenase (AldDH) from Rhodopseudomonas palustris BisB18, Strep-tagged (Rhodopseudomonas palustris BisB18); test: crystal structure; AldDH co-crystallised with propionyl-CoA at pH 8.1, space group P 2_(1), 1.9 Å; CoA and S-propionylcysteine in the active sites
[7] = biological target: acylating aldehyde dehydrogenase (AldDH) from Rhodopseudomonas palustris BisB18, Strep-tagged (Rhodopseudomonas palustris BisB18); test: SEC; gel filtration on HiLoad 16/600 Superdex 200 pg, 20 mM MOPS/KOH pH 7.5, 50 mM KCl
[8] = biological target: acylating aldehyde dehydrogenase (AldDH) from Rhodopseudomonas palustris BisB18, Strep-tagged (Rhodopseudomonas palustris BisB18); test: crystal structure; AldDH co-crystallised with propionyl-CoA at pH 4.8, space group P 1, 2.5 Å

Compound: CCC(=O)SCCNC(=O)CCNC(=O)[C@H](O)C(C)(C)COP(=O)(O)OP(=O)(O)OC[C@H]1O[C@@H](n2cnc3c(N)ncnc32)[C@H](O)[C@@H]1OP(=O)(O)O [propionyl-CoA]
- X-ray crystal structure, 2.52 Å [1]: we found electron density that allowed the fitting of either propionyl-CoA or CoA

Compound: NC(=O)c1ccc[n+]([C@@H]2O[C@H](COP(=O)(O)OP(=O)(O)OC[C@H]3O[C@@H](n4cnc5c(N)ncnc54)[C@H](O)[C@@H]3O)[C@@H](O)[C@H]2O)c1 [NAD^+]
- X-ray crystal structure, 2.30 Å [2]: Electron density in the active sites allowed the fitting of NAD^+

Compound: CC(C)(COP(=O)(O)OP(=O)(O)OC[C@H]1O[C@@H](n2cnc3c(N)ncnc32)[C@H](O)[C@@H]1OP(=O)(O)O)[C@@H](O)C(=O)NCCC(=O)NCCS [CoA]
- X-ray crystal structure, 1.90 Å [3]: In three of the four active sites of the tetramer we also found coenzyme A bound

- Km [4]: 1200 ± 170 µM
Compound: CCC=O [propionaldehyde]

- stoichiometry N [5]: 4
- stoichiometry N [6]: 4
- stoichiometry N [7]: 4
- stoichiometry N [8]: 4
Compound: acylating aldehyde dehydrogenase (AldDH) from Rhodopseudomonas palustris BisB18, Strep-tagged (enzyme)
